Experiment [1] concerns murine KHT sarcoma. Put plainly: KHT sarcoma tumour cell survival (excision and colony formation), cisplatin plus ZD6126. It counts as in vivo. As to conditions: 10 mg/kg cisplatin i.p. alone; assessed 24 hours later. On the procedure: In the murine KHT sarcoma model (Lingyun Li, B. S. et al, Int. J. Radiation Oncology Biol. Phys 42, 899-903, 1998) tumours were treated with either 10 mg/kg cisplatin i.p. alone or 10 mg/kg cisplatin plus ZD6126 (10-100 mg/kg i.p.), cisplatin given 1 hour prior to ZD6126. The effects of the treatments on tumour cell survival was assessed 24 hours later by excising the tumour, disaggregating the cells and determining the number of colonies formed after 10-14 days. Surviving fraction compared to untreated cells was then determined.

The subject of experiment [2] is murine adenocarcinoma CaNT tumour. Description: CaNT tumour model growth delay, ZD6126 in combination with cisplatin. It counts as in vivo, mice. On the procedure: ZD6126 alone was dosed on days 0, 2 and 4 using a split dose regimen of 100 mg/kg ZD6126, followed by a 2 hour interval, followed by a further 100 mg/kg ZD6126; doses were given intraperitoneally (i.p.).
Cisplatin (David Bull Laboratories) alone was dosed at 5 mg/kg i.p on day 0.
The combination treatment consisted of: • Day 0: ZD6126 100 mg/kg i.p., followed by a 2 hour interval, followed by a further 100 mg/kg ZD6126 i.p; and cisplatin 5 mg/kg given 10 minutes before first ZD6126 dose. • Days 2 and 4: ZD6126 100 mg/kg i.p., followed by a 2 hour interval, followed by a further 100 mg/kg ZD6126 i.p..
ZD6126 alone was dosed on days 0, 4, 7 and 11 using a split dose regimen of ZD6126 100 mg/kg i.p., followed by a 2 hour interval, followed by a further 100 mg/kg ZD6126 i.p.. Cisplatin alone was dosed at 5 mg/kg i.p on day 0 and day 7.
The combination treatment consisted of: • Days 0 and 7: ZD6126 100 mg/kg i.p., followed by a 2 hour interval, followed by a further 100 mg/kg ZD6126 i.p.; cisplatin given 10 minutes before first ZD6126 dose. • Days 3, 7 and 10: ZD6126 100 mg/kg i.p., followed by a 2 hour interval, followed by a further 100 mg/kg ZD6126 i.p..

Experiment [3] concerns human Calu 6 tumour cells. Description: Calu 6 tumour model growth delay, ZD6126 in combination with cisplatin. The class given is in vivo. Particulars: athymic nude mice; ZD6126 100 mg/kg i.p. x5 days; cisplatin 4 mg/kg i.p. day 0. As for the experimental part: In a second tumour model, Calu 6, the advantage of combining ZD6126 and cisplatin (cis-Platinum(II)Diammine Dichloride—Sigma P-4394) was confirmed. Athymic nude mice were implanted subcutaneously with 1×10^6 human Calu 6 tumour cells (obtained from American Type Culture Collection, 10801 University Boulevard, Manassas, Va. 20110-2209 Cat. no. Hm-56) and tumours allowed to grow until they were approximately 9 mm in diameter. Groups of 10 tumour bearing mice were then treated as follows:
ZD6126 alone was dosed 100 mg/kg i.p. on days 0, 1, 2, 3, 4.
Cisplatin alone was dosed 4 mg/kg i.p. on day 0.
In the combination arm cisplatin 4 mg/kg i.p. was dosed on day 0, and ZD6126 100 mg/kg i.p. was dosed on days 1, 2, 3, 4 and 5.
The combination of cisplatin and ZD6126 gave a growth delay (time to reach 2× starting volume) of 20.5 days compared to control tumours.

The test system of experiment [4] is FaDu cells (human squamous cell carcinoma of the pharynx). Put plainly: FaDu tumour model growth delay, ZD6126 in combination with paclitaxel. It counts as in vivo. Particulars: SCID mice; single dose ZD6126 125 mg/kg i.p.; paclitaxel 15 mg/kg i.p. As for the experimental part: In a third tumour model 5×10^5FaDu cells (human squamous cell carcinoma of the pharynx) were implanted onto the rear dorsum of 12-16 week old, female SCID mice. When the tumours had become established they were excised and cut into small tumour fragments approximately 1 mm^3. These fragments were implanted subcutaneously into further SCID mice. Once these tumours had become established (approximately 6 mm diameter) mice were treated with either a single dose of ZD6126 (125 mg/kg i.p.) alone, a single dose of paclitaxel (Taxol-BMS) (15 or 30 mg/kg i.p.) alone or the combination of a single dose of paclitaxel (15 mg/kg i.p.) and ZD6126 (125 mg/kg i.p.), paclitaxel being given 15 minutes before ZD6126.

Experiment [5] concerns murine KHT sarcoma. Description: KHT sarcoma tumour cell survival (excision and colony formation), ZD6126 and radiation. The class given is in vivo, mice. On the procedure:
The murine KHT sarcoma grown in C3H mice was also used to confirm the advantage of combining ZD6126 and radiation. Tumours were treated with either radiation alone (0, 5, 10, 15 or 20 Gy single dose), ZD6126 100 mg/kg i.p., or radiation followed 1 hour later by ZD6126 100 mg/kg i.p.. The effects of either radiation alone, ZD6126 alone or the combination on tumour cell survival was assessed 24 hours later by excising the tumour, disaggregating the cells and determining the number of colonies formed after 10-14 days. Surviving fraction compared to untreated cells was then determined.

The next experiment relates to CaNT tumours. Description: CaNT tumour model growth delay, ZD6126 in combination with ionising radiation. As to conditions: ZD6126 125 mg/kg i.p. days 0-4 and 7-11; radiation 15 Gy days 0 and 7. The class given is in vivo, mice. As for the experimental part:
The activity of combining ZD6126 and radiation in the CaNT tumour model was also investigated. Tumours were treated with either radiation alone (15 Gy days 0 and 7), ZD6126 alone (single dose of ZD6126 125 mg/kg i.p. on days 0, 1, 2, 3, 4, 7, 8, 9, 10 and 11), or a combination of both (15 Gy days 0 and 7, ZD6126 125 mg/kg i.p. on days 0, 1, 2, 3, 4, 7, 8, 9, 10 and 11). On the days radiation and ZD6126 were administered together,radiation treatment was given 3 hours after ZD6126 administration. Radiation was administered by placing the mice in lead boxes so that only the tumour bearing portion of the rear dorsum was exposed to a horizontal X-ray beam (Sheldon and Hill, B J C, 35, 795-808, […]). Mice were irradiated with 240 kV X-rays at a dose rate of 3.6 Gy/min.

Experiment [6] has as its system murine adenocarcinoma CaNT tumour. Description: In vivo cell survival excision assay, ZD6126 single versus divided doses in CaNT tumours. On the set-up: species or system mice. As for the experimental part: In vivo cell survival was measured using an excision assay (D J Chaplin et al., Anticancer Research 19: 189-196 (1999)).
For each of the assays a) and b) below, the surviving fraction of tumour cells was determined as follows:
Tumours were excised at about 18 hours after treatment, weighed and disaggregated for 1 hour at 37 degrees Celsius in an enzyme cocktail containing 1 mg/ml pronase, 0.5 mg/ml DNAase and 0.5 mg/ml collagenase. Haemocytometer counts of trypan blue-excluding cells were made and viable cells seeded in appropriate concentrations to yield about 50 colonies/dish after in vitro incubation. Heavily irradiated feeder cells (V79 cells) were used at a concentration of 25,000/ml to support the growth of the surviving CaNT cells. The data were calculated as surviving fraction per gram of tumour.
ZD6126 was administered as a single dose of […] intra-peritoneally (i.p.) in saline with a small amount of 1% sodium carbonate added to aid the dissolution of ZD6126.
ZD6126 was dosed using a split dose regimen of 100 mg/kg ZD6126, followed by a time interval, followed by a further 100 mg/kg ZD6126; doses were given intraperitoneally (i.p.) in saline with a small amount of 1% sodium carbonate added to aid the dissolution of ZD6126.
The time intervals used were 1, 2, 3, 4 and 6 hours.
This improved effect varied with the proportion of total dose given in the first and second doses.
ZD6126 was dosed using split dose regimens of: • i) 25 mg/kg ZD6126, followed by a 2 hour interval, followed by a further 175 mg/kg ZD6126; • ii) 50 mg/kg ZD6126, followed by a 2 hour interval, followed by a further 150 mg/kg ZD6126; • iii) 100 mg/kg ZD6126, followed by a 2 hour interval, followed by a further 100 mg/kg ZD6126; • iv) 150 mg/kg ZD6126, followed by a 2 hour interval, followed by a further 50 mg/kg ZD6126; • v) 175 mg/kg ZD6126, followed by a 2 hour interval, followed by a further 25 mg/kg ZD6126;
All doses were given intraperitoneally (i.p.) in saline with a small amount of 1% sodium carbonate added to aid the dissolution of ZD6126.

Where [7] appears, read: study 1, ZD6126 2x100 mg/kg i.p. 2 h apart days 0, 2, 4, cisplatin 5 mg/kg i.p. day 0.
Setting [8] is: study 2, ZD6126 2x100 mg/kg i.p. 2 h apart days 0, 4, 7, 11, cisplatin 5 mg/kg i.p. days 0 and 7.

The structures appear in SMILES notation.

Regarding `N.N.[Cl-].[Cl-].[Pt+2]` [Cisplatin, cis-Platinum(II)Diammine Dichloride, reference compound], the cell killing entry with murine KHT sarcoma [1] is on record as “approximately 98%”. Further, the “Mean growth delay (vs control) - days” value in experiment [2] (setting [7]) is reported as 2.1 days; in experiment [2] (setting [8]), 7.7 days. Also, in experiment [3], the “growth delay (time to reach 2× starting volume) compared to control tumours” value was 6.0 days.
On to `CC(=O)O[C@H]1C(=O)[C@@]2(C)[C@H]([C@H](OC(=O)c3ccccc3)[C@]3(O)C[C@H](OC(=O)[C@H](O)[C@@H](NC(=O)c4ccccc4)c4ccccc4)C(C)=C1C3(C)C)[C@]1(OC(C)=O)CO[C@@H]1C[C@@H]2O` [Paclitaxel, paclitaxel, reference compound], for which the “Mean growth delay (vs control) - days” value in experiment [4] was found to be 5.1 days.
`COc1cc2c(c(OC)c1OC)-c1ccc(OP(=O)(O)O)cc1[C@@H](NC(C)=O)CC2` [ZD6126, (5S)-5-(acetylamino)-9,10,11-trimethoxy-6,7-dihydro-5H-dibenzo[a,c]cyclohepten-3-yl dihydrogen phosphate]: the tumour cells killed in the experiment on murine KHT sarcoma [5] (ZD6126 alone 100 mg/kg) is reported as 97-98%. Also, in the experiment with murine KHT sarcoma [5] (ZD6126 combined with radiation doses of 5, 10 or 15 Gy), the “enhancement in cell killing” value is given as 100-200 fold. The “Plus ZD6126 % cell survival” value in the experiment with murine KHT sarcoma [5] (radiation dose 0 Gy, ZD6126 100 mg/kg i.p., C3H mice) is recorded as 2.5%; in the experiment on murine KHT sarcoma [5] (radiation dose 5 Gy, ZD6126 100 mg/kg i.p. 1 hour later), 0.16%; in the experiment with murine KHT sarcoma [5] (radiation dose 10 Gy, ZD6126 100 mg/kg i.p. 1 hour later), 0.015%; with murine KHT sarcoma [5] (radiation dose 15 Gy, ZD6126 100 mg/kg i.p. 1 hour later) it was 0.0016%. The “ZD6126 Enhancement” value in the experiment on murine KHT sarcoma [5] (radiation dose 0 Gy, ZD6126 100 mg/kg i.p., over controls) came out at 40 fold; with murine KHT sarcoma [5] (radiation dose 5 Gy, ZD6126 100 mg/kg i.p.), 125 fold; in the experiment with murine KHT sarcoma [5] (radiation dose 10 Gy, ZD6126 100 mg/kg i.p.), 100 fold; with murine KHT sarcoma [5] (radiation dose 15 Gy, ZD6126 100 mg/kg i.p.), 219 fold. Also, the “Mean growth delay (vs control) - days” value with CaNT tumours is 9.1 days; in experiment [2] (setting [7]) it was 6.5 days; in experiment [2] (setting [8]), 9.9 days; in experiment [4], 4.3 days. Further, in experiment [6] (100 mg/kg, 2 hour interval, further 100 mg/kg i.p.), the “split dose proportion giving the best anti-tumour effect” value is recorded as “best effect was seen with equal split doses”. The “anti-tumour effect, as measured by surviving fraction of tumour cells, divided doses versus single dose” value in experiment [6] (divided doses 2 hours apart (25+175, 50+150, 100+100, 150+50, 175+25 mg/kg i.p.) vs single 200 mg/kg) is “greater with divided doses of ZD6126 than with a single dose”. Besides, the “surviving fraction per gram of tumour, divided doses versus single dose” value in experiment [6] (two doses of 100 mg/kg i.p. separated by 2, 3 or 4 hours vs a single 200 mg/kg dose, about 18 hours after treatment) is reported as “significantly more effective”. The “growth delay (time to reach 2× starting volume) compared to control tumours” value in experiment [3] is 10.1 days.

The record behind these values is patent publication US20050107346A1, “N-acetylcolchinol-o-phosphate combination therapies with vascular damaging activity” (ASTRAZENECA AB, priority 2000, published 2005).
